Results as given in US4977267A, “Intermediates for pyridyloxy compounds having utility as anti-peptic ulcer agents” (Fujirebio Kabushiki Kaisha, priority 1987, dated 1990).

Experiments:
[1] = system: gastric mucosa (lesion by necrotizing agent 0.4N HCl+50% ethanol); assay: Test on the Action of Gastric Mucosal Protection; type: in vivo, Male Donryu rats; conditions: 10 mg/kg, p.o., 30 minutes before necrotizing agent (0.4N HCl+50% ethanol, 5 ml/kg); stomach isolated after one hour; rats fasted 24 hours
Protocol: Test on the Action of Gastric Mucosal Protection
Male Donryu rats (150 to 250 g) which had been caused to fast for 24 hours were used. In the test, a necrotizing agent (0.4N HCl+50% ethanol) was orally administered in a dose of 5 ml/kg 30 minutes after administering each of the test compounds (10 mg/kg, p.o.). One hour after administration of the necrotizing agent, the stomach was isolated and fixed by formalin. The area of a lesion was measured, and by comparison with a control group, the percent inhibition was determined.

histamine H2 receptor = biological target: T1, histamine H2 receptor (Cavia porcellus, UniProt P47747); assay: Test on histamine H2 receptor antagonizing activity (isolated right atrium); design: species or system Hartley-strain guinea pigs; conditions: guinea pig right atrium, heart rate; histamine dose-response; test compound 1×10^-6, 1×10^-7 M, 10 minutes; Van Rossum method; read-out: pA2 (converted)
T1 construct: the right atrium was dissected from the hearts; from tissue; host or cells: isolated right atrium of male Hartley-strain guinea pigs
T1 sequence (P47747 whole entry): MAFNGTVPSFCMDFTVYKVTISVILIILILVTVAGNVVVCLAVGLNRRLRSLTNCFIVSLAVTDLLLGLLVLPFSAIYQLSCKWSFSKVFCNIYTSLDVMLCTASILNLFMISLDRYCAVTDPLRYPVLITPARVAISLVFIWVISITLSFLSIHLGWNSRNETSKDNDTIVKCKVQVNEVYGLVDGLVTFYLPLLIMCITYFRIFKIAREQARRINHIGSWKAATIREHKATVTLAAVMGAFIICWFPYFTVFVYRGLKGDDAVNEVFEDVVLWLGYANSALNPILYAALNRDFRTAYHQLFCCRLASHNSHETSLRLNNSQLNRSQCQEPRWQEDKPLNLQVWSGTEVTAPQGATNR
Protocol: Test on histamine H2 receptor antagonizing activity
Hartley-strain guinea pigs (male 300 to 350 g) were stunned with a blow to the head. The heart was removed, and the right atrium was dissected from the hearts in the Krebs' solution bubbled with a […] was suspended in an Organ bath filled with the Krebs' solution kept at 32° C. The gaseous mixture was passed through the Organ bath, and a diastolic tension was adjusted to 1 g. The contraction of the atrium was recorded by a force displacement transducer, and the heart rate was measured by interlocking a heart rate meter to the transducer.
Histamine (used in the form of dihydrochloride; the same hereinafter) was added to the Organ bath cumulatively in a concentration of 1×10^-8 M to 3×10^-5 M. Thus, the dose-response curve of histamine was obtained. The Organ bath was washed several times, and each of the test compounds (1×10^-6, 1×10^-7 M) was added to the Organ bath, and a dose-response curve of histamine in the presence of the test compound was obtained 10 minutes later.
The pA2 value of each of the test compound was determined from the first histamine dose-response curve and the histamine dose-response curve obtained in the presence of the test compounds by the method of J. M. Van Rossum (Arch. Int. Pharmacodyn. Ther., 143-299, 1963).

Compound | Inhibition (%) of lesion area [1] [%] | Kb (histamine H2 receptor) [nM]
O=C(C[S+]([O-])Cc1ccco1)NC/C=C\COc1cc(CN2CCCCC2)ccn1 (stereo not drawn) [Example 2, N-{4-[4-(piperidinomethyl)pyridyl-2-oxy]-cis-2-butenyl}-2-(furfurylsulfinyl)acetamide] | 32 | 
O=C(C[S+]([O-])Cc1ccco1)NCCCCOc1cc(CN2CCCCC2)ccn1 (centres unmarked) [Example 21, N-{4-[4-(piperidinomethyl)-pyridyl-2-oxy]-butyl}-2-(furfurylsulfinyl)acetamide] | 32 | 
O=C(CS(=O)(=O)Cc1ccoc1)NC/C=C\COc1cc(CN2CCCCC2)ccn1 [Example 3, N-{4-[4-(piperidinomethyl)pyridyl-2-oxy]-cis-2-butenyl}-2-(3-furylmethylsulfonyl)acetamide] | 62 | 
O=C(C[S+]([O-])Cc1ccco1)NC/C=C\COc1cc(CN2CCCC2)ccn1 (stereo not drawn) [Example 10, N-{4-[4-(pyrrolidinomethyl)pyridyl-2-oxy]-cis-2-butenyl}-2-(furfurylsulfinyl)acetamide] |  | 126
O=C(CSCc1ccco1)NC/C=C\COc1cc(CN2CCCCC2)ccn1 [Example 1, N-{4-[4-(piperidinomethyl)pyridyl-2oxy]-cis-2-butenyl)-2-(furfurylthio)acetamide] | 66 | 
O=C(CS(=O)(=O)Cc1ccoc1)NC/C=C\COc1cc(CN2CCCC2)ccn1 [Example 11, N-{4-[4-(pyrrolidinomethyl)pyridyl-2-oxy]-cis-2-butenyl}-2-(3-furylmethylsulfonyl)acetamide] |  | 100
O=C(C[S+]([O-])Cc1ccco1)NC/C=C\COc1cc(CN2CCOCC2)ccn1 (stereo not drawn) [Example 12, N-{4-[4-(morpholinomethyl)pyridyl-2-oxy]-cis-2-butenyl}-2-(furfurylsulfinyl)acetamide] | 38 | 251
